Experiment [1] addresses T1, Pc-frLHC (Prasiola crispa far-red light-harvesting Chl-binding protein complex) (Prasiola crispa, UniProt C0HLU5).
T1 construct: native complex purified from thylakoids of thalli harvested in Antarctica; beta-DDM; homo-undecamer, subunit about 29 kDa
The experiment in a line: cryo-EM structure, […] A; biochemical pigment analysis. The conditions noted are these: native pigment, pH 6.5.

Experiment [2] deals with Prasiola crispa far-red light-harvesting Chl-binding protein complex (Pc-frLHC) subunit (Prasiola crispa). The experiment in a line: cryo-EM structure; single-particle cryo-EM, C11 symmetry imposed; 6 mg protein/ml in 25 mM MES pH 6.5, 0.015% β-DDM, 0.5 M betaine; 3.13 Å.

T1 sequence (C0HLU5 45-307, one chain of several): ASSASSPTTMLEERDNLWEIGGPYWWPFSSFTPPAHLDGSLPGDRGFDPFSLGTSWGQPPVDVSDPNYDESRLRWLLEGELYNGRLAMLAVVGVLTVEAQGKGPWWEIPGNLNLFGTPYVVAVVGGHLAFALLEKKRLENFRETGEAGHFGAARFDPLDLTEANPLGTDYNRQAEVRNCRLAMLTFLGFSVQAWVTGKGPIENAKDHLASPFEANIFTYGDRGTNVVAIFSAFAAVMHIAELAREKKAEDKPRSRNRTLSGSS

In the case of `CC1=C[C@H](O)CC(C)(C)[C@H]1/C=C/C(C)=C/C=C/C(C)=C/C=C/C=C(C)/C=C/C=C(/C=C/C1=C(C)C[C@@H](O)CC1(C)C)CO` [loroxanthin], the “cryo-EM structure, 3.13 A; biochemical pigment analysis” value in experiment [1] (L2 site) is “Pc-frLHC binds only two carotenoids: violaxanthin (vio) and loroxanthin (loro)”. With “Prasiola crispa far-red light-harvesting Chl-binding protein complex (Pc-frLHC) subunit (natural protein)”, the stoichiometry N (in general, the number of molecules, sites or subunits per partner or assembly) in experiment [2] is 11. For `CC(/C=C/C=C(C)/C=C/[C@@]12O[C@]1(C)C[C@@H](O)CC2(C)C)=C\C=C\C=C(C)\C=C\C=C(C)\C=C\[C@@]12O[C@]1(C)C[C@@H](O)CC2(C)C` [violaxanthin], the “cryo-EM structure, 3.13 A; biochemical pigment analysis” value in experiment [1] (L1 site) is “Pc-frLHC binds only two carotenoids: violaxanthin (vio) and loroxanthin (loro)”.

Values taken from article PMC9931709, “Uphill energy transfer mechanism for photosynthesis in an Antarctic alga” (Nature Communications, 2023).
